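These data come from cells grown in 96-well plates and exposed to compound for 48 hours at five concentrations. TGI marks complete inhibition of growth.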
Experiments:
Assay in all cases: NCI tumour cell line growth inhibition, 48 h
HL-60(TB) leukemia = system: HL-60(TB) leukemia
PC-3 prostate = system: PC-3 prostate
EKVX NSCLC = system: EKVX NSCLC
HS 578T breast = system: HS 578T breast
NCI-H460 lung = system: NCI-H460 lung
IGROV1 ovarian = system: IGROV1 ovarian
NCI/ADR-RES ovarian = system: NCI/ADR-RES ovarian
OVCAR-8 ovarian = system: OVCAR-8 ovarian
UO-31 renal = system: UO-31 renal
UACC-257 melanoma = system: UACC-257 melanoma
SN12C renal = system: SN12C renal
HOP-62 NSCLC = system: HOP-62 NSCLC
HT29 colon = system: HT29 colon
TK-10 renal = system: TK-10 renal
MCF7 breast = system: MCF7 breast
SW-620 colon = system: SW-620 colon
HCT-116 colon = system: HCT-116 colon
BT-549 breast = system: BT-549 breast
RXF 393 renal = system: RXF 393 renal
SF-268 CNS = system: SF-268 CNS
SK-MEL-28 melanoma = system: SK-MEL-28 melanoma
NCI-H23 lung = system: NCI-H23 lung
MDA-MB-231 breast = system: MDA-MB-231 breast
LOX IMVI melanoma = system: LOX IMVI melanoma
CAKI-1 renal = system: CAKI-1 renal
HCC-2998 colon = system: HCC-2998 colon
OVCAR-5 ovarian = system: OVCAR-5 ovarian
K-562 leukemia = system: K-562 leukemia
MOLT-4 leukemia = system: MOLT-4 leukemia
786-0 renal = system: 786-0 renal
NCI-H522 lung = system: NCI-H522 lung
HOP-92 NSCLC = system: HOP-92 NSCLC
COLO 205 colon = system: COLO 205 colon
SK-MEL-2 melanoma = system: SK-MEL-2 melanoma
DU-145 prostate = system: DU-145 prostate
OVCAR-4 ovarian = system: OVCAR-4 ovarian
CCRF-CEM leukemia = system: CCRF-CEM leukemia
A549 NSCLC = system: A549 NSCLC
M14 melanoma = system: M14 melanoma
NCI-H226 lung = system: NCI-H226 lung
UACC-62 melanoma = system: UACC-62 melanoma
SNB-19 CNS = system: SNB-19 CNS
SK-MEL-5 melanoma = system: SK-MEL-5 melanoma
T-47D breast = system: T-47D breast
HCT-15 colon = system: HCT-15 colon
MALME-3M melanoma = system: MALME-3M melanoma
MDA-N = system: MDA-N
KM12 colon = system: KM12 colon
RPMI-8226 leukemia = system: RPMI-8226 leukemia
SF-295 CNS = system: SF-295 CNS
MDA-MB-435 = system: MDA-MB-435
ACHN renal = system: ACHN renal
SK-OV-3 ovarian = system: SK-OV-3 ovarian
SNB-75 CNS = system: SNB-75 CNS
U251 CNS = system: U251 CNS
A498 renal = system: A498 renal
SF-539 CNS = system: SF-539 CNS
SR leukemia = system: SR leukemia
OVCAR-3 ovarian = system: OVCAR-3 ovarian

Cc1nnc(N)nc1C/C=C/C(C)Sc1ccc(Cl)cc1 (stereo unspecified)
TGI (HL-60(TB) leukemia): 10.1 µM
TGI (PC-3 prostate): 17.8 µM
TGI (EKVX NSCLC): 23.3 µM
TGI (HS 578T breast): > 75.9 µM
TGI (NCI-H460 lung): 30.3 µM
TGI (IGROV1 ovarian): 13.5 µM
TGI (NCI/ADR-RES ovarian): > 60.3 µM
TGI (OVCAR-8 ovarian): > 56.5 µM
TGI (UO-31 renal): 19.4 µM
TGI (UACC-257 melanoma): 30.8 µM
TGI (SN12C renal): > 80.6 µM
TGI (HOP-62 NSCLC): 25.4 µM
TGI (HT29 colon): 43.8 µM
TGI (TK-10 renal): 35.9 µM
TGI (MCF7 breast): 33.2 µM
TGI (SW-620 colon): > 48 µM
TGI (HCT-116 colon): 33.8 µM
TGI (BT-549 breast): > 67.2 µM
TGI (RXF 393 renal): 22.2 µM
TGI (SF-268 CNS): 39.9 µM
TGI (SK-MEL-28 melanoma): 45 µM
TGI (NCI-H23 lung): 36 µM
TGI (MDA-MB-231 breast): > 41.9 µM
TGI (LOX IMVI melanoma): > 30.4 µM
TGI (CAKI-1 renal): 33.9 µM
TGI (HCC-2998 colon): 31.3 µM
TGI (OVCAR-5 ovarian): 36.9 µM
TGI (K-562 leukemia): > 100 µM
TGI (MOLT-4 leukemia): > 100 µM
TGI (786-0 renal): 33.1 µM
TGI (NCI-H522 lung): 16.1 µM
TGI (HOP-92 NSCLC): 68.8 µM
TGI (COLO 205 colon): 49.8 µM
TGI (SK-MEL-2 melanoma): 30.6 µM
TGI (DU-145 prostate): 38.1 µM
TGI (OVCAR-4 ovarian): 48 µM
TGI (CCRF-CEM leukemia): 26.4 µM
TGI (A549 NSCLC): 58.6 µM
TGI (M14 melanoma): 26 µM
TGI (NCI-H226 lung): 7.69 µM
TGI (UACC-62 melanoma): 17.8 µM
TGI (SNB-19 CNS): > 51 µM
TGI (SK-MEL-5 melanoma): 22.9 µM
TGI (T-47D breast): 42.4 µM
TGI (HCT-15 colon): > 54.1 µM
TGI (MALME-3M melanoma): 33.7 µM
TGI (MDA-N): > 100 µM
TGI (KM12 colon): 20.7 µM
TGI (RPMI-8226 leukemia): > 70 µM
TGI (SF-295 CNS): 11.8 µM
TGI (MDA-MB-435): > 50.8 µM
TGI (ACHN renal): 29 µM
TGI (SK-OV-3 ovarian): 21.9 µM
TGI (SNB-75 CNS): 19.2 µM
TGI (U251 CNS): > 42 µM
TGI (A498 renal): 25.9 µM

COC1=C(OC)C(=O)C(C/C=C/c2c(Cl)nc3sccn23)=C(C)C1=O
TGI (PC-3 prostate): 31.6 µM
TGI (EKVX NSCLC): 25.1 µM
TGI (HS 578T breast): 54.6 µM
TGI (NCI-H460 lung): 38.6 µM
TGI (IGROV1 ovarian): 35.9 µM
TGI (NCI/ADR-RES ovarian): 29.6 µM
TGI (OVCAR-8 ovarian): 24.2 µM
TGI (UO-31 renal): 38.8 µM
TGI (UACC-257 melanoma): 5.36 µM
TGI (SN12C renal): 31.7 µM
TGI (HOP-62 NSCLC): 32.1 µM
TGI (HT29 colon): 46.9 µM
TGI (TK-10 renal): 34.9 µM
TGI (MCF7 breast): 52.8 µM
TGI (SW-620 colon): 46 µM
TGI (HCT-116 colon): 33.5 µM
TGI (BT-549 breast): 28.8 µM
TGI (RXF 393 renal): 37.5 µM
TGI (SF-268 CNS): 38 µM
TGI (SK-MEL-28 melanoma): 33.7 µM
TGI (NCI-H23 lung): 7.76 µM
TGI (MDA-MB-231 breast): 25.3 µM
TGI (LOX IMVI melanoma): 12.1 µM
TGI (CAKI-1 renal): 50.7 µM
TGI (HCC-2998 colon): 39.3 µM
TGI (OVCAR-5 ovarian): 38 µM
TGI (K-562 leukemia): 68.3 µM
TGI (MOLT-4 leukemia): 8.97 µM
TGI (786-0 renal): 49.2 µM
TGI (SF-539 CNS): 31.7 µM
TGI (NCI-H522 lung): 33.2 µM
TGI (COLO 205 colon): 31.9 µM
TGI (SK-MEL-2 melanoma): 48.3 µM
TGI (DU-145 prostate): 40.3 µM
TGI (OVCAR-4 ovarian): 13.9 µM
TGI (CCRF-CEM leukemia): 41.1 µM
TGI (A549 NSCLC): 33.3 µM
TGI (M14 melanoma): 32.5 µM
TGI (UACC-62 melanoma): 29.1 µM
TGI (SNB-19 CNS): 27.6 µM
TGI (SK-MEL-5 melanoma): 12.9 µM
TGI (T-47D breast): 84.2 µM
TGI (SR leukemia): 66 µM
TGI (HCT-15 colon): > 100 µM
TGI (MALME-3M melanoma): 17 µM
TGI (MDA-N): 19.8 µM
TGI (KM12 colon): 44.4 µM
TGI (RPMI-8226 leukemia): 27.5 µM
TGI (SF-295 CNS): 21 µM
TGI (MDA-MB-435): 23.6 µM
TGI (ACHN renal): 36.1 µM
TGI (SK-OV-3 ovarian): 33.8 µM
TGI (U251 CNS): 25.6 µM
TGI (OVCAR-3 ovarian): 29.9 µM
TGI (A498 renal): 48.2 µM

CCN(CC)CCC(=O)Nc1ccc2sc3ccccc3c(=O)c2n1
TGI (HL-60(TB) leukemia): 30.9 µM
TGI (PC-3 prostate): 40.9 µM
TGI (EKVX NSCLC): > 100 µM
TGI (HS 578T breast): 46.1 µM
TGI (NCI-H460 lung): 61.6 µM
TGI (IGROV1 ovarian): 35.8 µM
TGI (NCI/ADR-RES ovarian): 72 µM
TGI (OVCAR-8 ovarian): 62.4 µM
TGI (UO-31 renal): 22.2 µM
TGI (UACC-257 melanoma): 37.5 µM
TGI (SN12C renal): 77.8 µM
TGI (HOP-62 NSCLC): 37.8 µM
TGI (HT29 colon): > 100 µM
TGI (TK-10 renal): 57.5 µM
TGI (MCF7 breast): 36.5 µM
TGI (SW-620 colon): 33.9 µM
TGI (HCT-116 colon): 29.4 µM
TGI (BT-549 breast): 36.1 µM
TGI (SF-268 CNS): 48.5 µM
TGI (SK-MEL-28 melanoma): 33.6 µM
TGI (NCI-H23 lung): 43.8 µM
TGI (LOX IMVI melanoma): 38.9 µM
TGI (CAKI-1 renal): 28.8 µM
TGI (HCC-2998 colon): 42.7 µM
TGI (OVCAR-5 ovarian): 42.5 µM
TGI (K-562 leukemia): 41.4 µM
TGI (MOLT-4 leukemia): > 100 µM
TGI (786-0 renal): 35.1 µM
TGI (SF-539 CNS): 33.4 µM
TGI (NCI-H522 lung): 30.4 µM
TGI (HOP-92 NSCLC): 0.0992 µM
TGI (COLO 205 colon): 29.1 µM
TGI (SK-MEL-2 melanoma): 45.8 µM
TGI (DU-145 prostate): > 100 µM
TGI (OVCAR-4 ovarian): > 100 µM
TGI (CCRF-CEM leukemia): 75.6 µM
TGI (A549 NSCLC): 37 µM
TGI (M14 melanoma): 28.1 µM
TGI (UACC-62 melanoma): 35 µM
TGI (SNB-19 CNS): 53.1 µM
TGI (SK-MEL-5 melanoma): 33.8 µM
TGI (T-47D breast): 45.9 µM
TGI (SR leukemia): > 100 µM
TGI (HCT-15 colon): 62.3 µM
TGI (MALME-3M melanoma): 39.1 µM
TGI (MDA-N): 30.3 µM
TGI (KM12 colon): 32.1 µM
TGI (RPMI-8226 leukemia): 43.5 µM
TGI (SF-295 CNS): 48.9 µM
TGI (MDA-MB-435): 26.4 µM
TGI (ACHN renal): 38.1 µM
TGI (SK-OV-3 ovarian): 36.7 µM
TGI (SNB-75 CNS): 21.6 µM
TGI (U251 CNS): 28.8 µM
TGI (OVCAR-3 ovarian): 43.2 µM
